Experimental data: US20240002344A1, “COMPOUNDS, COMPOSITIONS AND METHODS FOR HISTONE LYSINE DEMETHYLASE INHIBITION” (FibroGen, Inc., priority 2020, published 2024)

What was measured:
recombinant human KDM5B = target: T1, recombinant human KDM5B (Homo sapiens, UniProt Q9UGL1); test: 14CO2 capture enzymatic assay (decarboxylation of [1-14C] αKG), KDM5B; format: biochemical; settings: 10 μM [1-14C] αKG, 90 μM non-labeled αKG, 50 μM peptide substrate, 37° C., 1 hour, final 1% DMSO
T1 sequence (Q9UGL1 374-755 limits assumed): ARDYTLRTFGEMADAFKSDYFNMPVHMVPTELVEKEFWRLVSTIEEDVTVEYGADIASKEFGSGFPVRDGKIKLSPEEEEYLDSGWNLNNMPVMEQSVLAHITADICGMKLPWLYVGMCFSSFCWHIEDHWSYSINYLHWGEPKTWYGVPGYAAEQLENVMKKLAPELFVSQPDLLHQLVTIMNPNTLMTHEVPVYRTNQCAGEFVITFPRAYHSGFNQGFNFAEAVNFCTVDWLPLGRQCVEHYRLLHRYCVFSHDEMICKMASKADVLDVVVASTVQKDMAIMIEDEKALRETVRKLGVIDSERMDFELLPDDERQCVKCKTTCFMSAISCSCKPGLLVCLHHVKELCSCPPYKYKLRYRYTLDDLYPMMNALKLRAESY
Outline: (§1)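 Truncated recombinant human KDM5B (H3K4me3 peptide) or KDM4A (H3K9me3 peptide), 50 μM peptide, with 10 μM [1-14C]αKG plus 90 μM unlabeled αKG, 10 μM Fe(SO4), 2 mM ascorbate in pH 7.4 HEPES, 1 h at 37 °C, 1% DMSO. Released 14CO2 trapped on Ba(OH)2 filter; IC50 by non-linear fit.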

recombinant human KDM4A = target: T2, recombinant human KDM4A (Homo sapiens, UniProt O75164); test: 14CO2 capture enzymatic assay (decarboxylation of [1-14C] αKG), KDM4A; format: biochemical; settings: 10 μM [1-14C] αKG, 90 μM non-labeled αKG, 50 μM peptide substrate, 37° C., 1 hour, final 1% DMSO
T2 construct: made in house
T2 sequence (O75164 1-359 limits assumed): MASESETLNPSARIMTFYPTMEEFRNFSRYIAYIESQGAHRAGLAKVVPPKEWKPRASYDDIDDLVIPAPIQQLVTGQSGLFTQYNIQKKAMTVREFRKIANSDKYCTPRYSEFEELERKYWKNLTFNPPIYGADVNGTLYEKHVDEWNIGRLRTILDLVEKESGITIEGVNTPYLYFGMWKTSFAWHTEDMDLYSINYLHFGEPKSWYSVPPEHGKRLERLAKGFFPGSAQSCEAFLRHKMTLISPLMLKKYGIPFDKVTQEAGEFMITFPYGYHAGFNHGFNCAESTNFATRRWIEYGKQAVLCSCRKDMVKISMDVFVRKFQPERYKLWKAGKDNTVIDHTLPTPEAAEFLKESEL
Outline: as §1

Structure (SMILES) | IC50 (recombinant human KDM5B) | IC50 (recombinant human KDM4A)
Cc1cccc(F)c1-c1cc(C#N)c(O)c(C(=O)CCC(=O)O)n1 [Example 88, 4-[4-Cyano-6-(2-fluoro-6-methyl-phenyl)-3-hydroxy-pyridin-2-yl]-4-oxo-butyric acid] | 710 nM | > 40000 nM
Cc1ccc(C)c(-c2cc(C#N)c(O)c(C(=O)CCC(=O)O)n2)c1 [Example 94, 4-[4-Cyano-6-(2,5-dimethyl-phenyl)-3-hydroxy-pyridin-2-yl]-4-oxo-butyric acid] | 270 nM | > 40000 nM
Cc1ccc(C(F)(F)F)cc1-c1cc(C#N)c(O)c(C(=O)CCC(=O)O)n1 [Example 97, 4-[4-Cyano-3-hydroxy-6-(2-methyl-5-trifluoromethyl-phenyl)-pyridin-2-yl]-4-oxo-butyric acid] | 300 nM | > 40000 nM
Cc1c(C#N)cccc1-c1cc(C#N)c(O)c(C(=O)CCC(=O)O)n1 [Example 98, 4-[4-Cyano-6-(3-cyano-2-methyl-phenyl)-3-hydroxy-pyridin-2-yl]-4-oxo-butyric acid] | 300 nM | > 40000 nM
Cc1cc(C#N)ccc1-c1cc(C#N)c(O)c(C(=O)CCC(=O)O)n1 [Example 99, 4-[4-Cyano-6-(4-cyano-2-methyl-phenyl)-3-hydroxy-pyridin-2-yl]-4-oxo-butyric acid] | 270 nM | > 40000 nM
Cc1ccc(C#N)cc1-c1cc(C#N)c(O)c(C(=O)CCC(=O)O)n1 [Example 100, 4-[4-Cyano-6-(5-cyano-2-methyl-phenyl)-3-hydroxy-pyridin-2-yl]-4-oxo-butyric acid] | 430 nM | > 40000 nM
N#Cc1ccc(C(F)(F)F)cc1-c1cc(C#N)c(O)c(C(=O)CCC(=O)O)n1 [Example 105, 4-[4-Cyano-6-(2-cyano-5-trifluoromethyl-phenyl)-3-hydroxy-pyridin-2-yl]-4-oxo-butyric acid] | 420 nM | > 40000 nM
COc1ccc(Cl)c(-c2cc(C#N)c(O)c(C(=O)CCC(=O)O)n2)c1 [Example 106, 4-[6-(2-Chloro-5-methoxy-phenyl)-4-cyano-3-hydroxy-pyridin-2-yl]-4-oxo-butyric acid] | 350 nM | > 40000 nM
N#Cc1cc(-c2ccc(F)c3ccccc23)nc(C(=O)CCC(=O)O)c1O [Example 109, 4-[4-Cyano-6-(4-fluoro-naphthalen-1-yl)-3-hydroxy-pyridin-2-yl]-4-oxo-butyric acid] | 250 nM | > 40000 nM
N#Cc1cc(-c2ccc(-c3ccccc3)c3ccccc23)nc(C(=O)CCC(=O)O)c1O [Example 111, 4-[4-Cyano-3-hydroxy-6-(4-phenyl-naphthalen-1-yl)-pyridin-2-yl]-4-oxo-butyric acid] | 320 nM | > 40000 nM
Cc1ccc(-c2cc(C#N)c(O)c(C(=O)CCC(=O)O)n2)c2ccccc12 [Example 113, 4-[4-Cyano-3-hydroxy-6-(4-methyl-naphthalen-1-yl)-pyridin-2-yl]-4-oxo-butyric acid] | 230 nM | > 40000 nM
COc1cccc(-c2cc(C#N)c(O)c(C(=O)CCC(=O)O)n2)c1Cl [Example 114, 4-[6-(2-Chloro-3-methoxy-phenyl)-4-cyano-3-hydroxy-pyridin-2-yl]-4-oxo-butyric acid] | 140 nM | 10000 nM
N#Cc1cc(-c2ccc(C(F)(F)F)cc2Cl)nc(C(=O)CCC(=O)O)c1O [Example 115, 4-[6-(2-Chloro-4-trifluoromethyl-phenyl)-4-cyano-3-hydroxy-pyridin-2-yl]-4-oxo-butyric acid] | 230 nM | > 40000 nM
N#Cc1cc(-c2ccc(Cl)cc2)cc(C(=O)CCC(=O)O)c1O [Example 118, 4-(4′-Chloro-5-cyano-4-hydroxy-biphenyl-3-yl)-4-oxo-butyric acid] | 160 nM | > 40000 nM
N#Cc1cc(-c2ccccc2Cl)cc(C(=O)CCC(=O)O)c1O [Example 119, 4-(2′-Chloro-5-cyano-4-hydroxy-biphenyl-3-yl)-4-oxo-butyric acid] | 280 nM | > 40000 nM
N#Cc1cc(-c2cccc(Cl)c2)cc(C(=O)CCC(=O)O)c1O [Example 120, 4-(3′-Chloro-5-cyano-4-hydroxy-biphenyl-3-yl)-4-oxo-butyric acid] | 150 nM | > 40000 nM

Other lines, results leading:

IC50 (recombinant human KDM5B) | IC50 (recombinant human KDM4A) | Structure (SMILES)
310 nM | > 40000 nM | Cc1c(Cl)cccc1-c1cc(C#N)c(O)c(C(=O)CCC(=O)O)n1 [Example 89, 4-[6-(3-Chloro-2-methyl-phenyl)-4-cyano-3-hydroxy-pyridin-2-yl]-4-oxo-butyric acid]
250 nM | > 40000 nM | Cc1cc(Cl)ccc1-c1cc(C#N)c(O)c(C(=O)CCC(=O)O)n1 [Example 90, 4-[6-(4-Chloro-2-methyl-phenyl)-4-cyano-3-hydroxy-pyridin-2-yl]-4-oxo-butyric acid]
170 nM | > 40000 nM | Cc1ccc(Cl)cc1-c1cc(C#N)c(O)c(C(=O)CCC(=O)O)n1 [Example 91, 4-[6-(5-Chloro-2-methyl-phenyl)-4-cyano-3-hydroxy-pyridin-2-yl]-4-oxo-butyric acid]
370 nM | > 40000 nM | Cc1cccc(-c2cc(C#N)c(O)c(C(=O)CCC(=O)O)n2)c1C [Example 92, 4-[4-Cyano-6-(2,3-dimethyl-phenyl)-3-hydroxy-pyridin-2-yl]-4-oxo-butyric acid]
330 nM | > 40000 nM | Cc1ccc(-c2cc(C#N)c(O)c(C(=O)CCC(=O)O)n2)c(C)c1 [Example 93, 4-[4-Cyano-6-(2,4-dimethyl-phenyl)-3-hydroxy-pyridin-2-yl]-4-oxo-butyric acid]
350 nM | > 40000 nM | Cc1c(-c2cc(C#N)c(O)c(C(=O)CCC(=O)O)n2)cccc1C(F)(F)F [Example 95, 4-[4-Cyano-3-hydroxy-6-(2-methyl-3-trifluoromethyl-phenyl)-pyridin-2-yl]-4-oxo-butyric acid]
310 nM | > 40000 nM | Cc1cc(C(F)(F)F)ccc1-c1cc(C#N)c(O)c(C(=O)CCC(=O)O)n1 [Example 96, 4-[4-Cyano-3-hydroxy-6-(2-methyl-4-trifluoromethyl-phenyl)-pyridin-2-yl]-4-oxo-butyric acid]
310 nM | > 40000 nM | Cc1cccc(-c2cc(C#N)c(O)c(C(=O)CCC(=O)O)n2)c1Cl [Example 101, 4-[6-(2-Chloro-3-methyl-phenyl)-4-cyano-3-hydroxy-pyridin-2-yl]-4-oxo-butyric acid]
400 nM | > 40000 nM | Cc1ccc(Cl)c(-c2cc(C#N)c(O)c(C(=O)CCC(=O)O)n2)c1 [Example 102, 4-[6-(2-Chloro-5-methyl-phenyl)-4-cyano-3-hydroxy-pyridin-2-yl]-4-oxo-butyric acid]
380 nM | > 40000 nM | N#Cc1cc(-c2cccc(C(F)(F)F)c2Cl)nc(C(=O)CCC(=O)O)c1O [Example 103, 4-[6-(2-Chloro-3-trifluoromethyl-phenyl)-4-cyano-3-hydroxy-pyridin-2-yl]-4-oxo-butyric acid]
460 nM | > 40000 nM | N#Cc1cc(-c2ccccc2)cc(C(=O)CCC(=O)O)c1O [Example 104, 4-(5-Cyano-4-hydroxy-biphenyl-3-yl)-4-oxo-butyric acid]
320 nM | > 40000 nM | N#Cc1cc(-c2cccc(F)c2Cl)nc(C(=O)CCC(=O)O)c1O [Example 107, 4-[6-(2-Chloro-3-fluoro-phenyl)-4-cyano-3-hydroxy-pyridin-2-yl]-4-oxo-butyric acid]
270 nM | > 40000 nM | N#Cc1cc(-c2cc(F)ccc2Cl)nc(C(=O)CCC(=O)O)c1O [Example 108, 4-[6-(2-Chloro-5-fluoro-phenyl)-4-cyano-3-hydroxy-pyridin-2-yl]-4-oxo-butyric acid]
270 nM | > 40000 nM | N#Cc1cc(-c2ccc(Cl)c3ccccc23)nc(C(=O)CCC(=O)O)c1O [Example 110, 4-[6-(4-Chloro-naphthalen-1-yl)-4-cyano-3-hydroxy-pyridin-2-yl]-4-oxo-butyric acid]
390 nM | > 40000 nM | N#Cc1cc(-c2cccc3ncccc23)nc(C(=O)CCC(=O)O)c1O [Example 112, 4-(4-Cyano-3-hydroxy-6-quinolin-5-yl-pyridin-2-yl)-4-oxo-butyric acid]
100 nM | > 40000 nM | N#Cc1cc(-c2cccc3cccnc23)nc(C(=O)CCC(=O)O)c1O [Example 116, 4-(4-Cyano-3-hydroxy-6-quinolin-8-yl-pyridin-2-yl)-4-oxo-butyric acid]
280 nM | > 40000 nM | N#Cc1cc(Cc2ccccc2)cc(C(=O)CCC(=O)O)c1O [Example 117, 4-(5-Benzyl-3-cyano-2-hydroxy-phenyl)-4-oxo-butyric acid]
